According to patent US20100062012A1, “Negative Genetic Regulation of Cancer Cell Renewal in Synergy with Notch- or Numb-Specific Immunotherapy” (priority 2007, published 2010):
Marks after values point to notes of the source that are not given here.

Columns and labels:
[1] = system: CD8+ T cells (TAL) from ascites of HLA-A2+ ovarian cancer patients; experiment: peptide-HLA-A2-IgG dimer staining of ovarian tumor associated lymphocytes (flow cytometry); type: cell-based, human; conditions: for patients with activated CD8+ Perforin+ cells expressing TCR specific for the peptide: five ovarian cancer patients
Description: Lymphocyte culture. Lymphocytes were isolated by Ficoll-gradient centrifugation from heparinized ascites from HLA-A2^+ ovarian cancer patients. After separation, we cultured lymphocytes with RPMI 1640 medium with 10% FCS and 300 IU of IL-2 (Biosource Camarillo, Calif.) for one week, as we described (23,24).
We identified cells expressing high concentrations/numbers of T cell receptors (TCRs) reactive with each peptide to evaluate the role of TCR density in CTL differentiation upon in vivo stimulation with the same ligands. The TCR^+ population which usually includes cells staining with antigen-tetramers/dimers with a mean fluorescence intensity (MFI) higher than 101, was divided in three populations, one staining with antigen-pulsed HLA-A2/IgG dimers (dimers) with a MFI (TCR) between 101 and 102, and other which stained with antigen-pulsed dimers with a MFI (TCR) between 102 and 103, and other which stained with antigen-pulsed dimers with a MFI (TCR) between 103 and 104. These populations were designated as TCR^lo, TCRmed, and […], respectively, as we described (26).
T cell: peptide-HLA-A2-lgG dimer interaction. Expression of TCRs specific for peptides Notch1 (1940-1948), Notch1 (2112-2120), Numb1 (87-95), Gli1 (580-588) and AESI (128-137) was determined using HLA-A2-IgG-dimmers (BD Bioscience Pharmingen). The peptide loaded dimers were prepared as we previously described (23). Staining of lymphocyte with dimers was performed as described previously (24,27,28).
The same cells were also stained for the expression of CD8 antigen and the presence of Perforin, (effector pore forming enzyme) using specific antibodies conjugated to distinct fluorochromes than the dimers: fluorescein isothiocianate (FITC), allophycocyanin (APC) and PE. Cells reacting with the corresponding peptide-loaded dimers are designated as Notch1-1940-TCR^+, Notch1-2112-TCR^+, Numb1-87-TCR^+, and […] cells, respectively. Cells reacted with control HLA-A2-IgG dimers not loaded with peptide are designated as dNP-TCR^+ cells.

MCF7 cells = experiment: Stimulation of MCF7 / GEMRes MCF7 by DLL4; type: cell-based, human
Protocol: Stimulation of GEMRes MCF7 by DLL4. GEMRes MCF7 were obtained after culture with 0.3 uM GEM for 7 weeks. MCF7 were stimulated for 24 hrs, in medium containing estradiol, fibroblast growth factor in the presence or absence of DLL4, as described (40).

[2] = biological target: Notch receptor on MCF7 cells (human); experiment: cell-based or functional assay
MIA-PaCa-2 [3] = experiment: Flow cytometry of CSt-C markers after culture with drugs; type: cell-based, human; conditions: starting from 3.0×10^6 Mia-PaCa-2 cells
PANC-1 = experiment: MTT inhibition of proliferation; type: cell-based; conditions: Homo sapiens; PANC-1, MTT, 72 h
Description: (§1) Inhibition of proliferation of tumor cell lines by anticancer drugs.

MCF7 [4] = experiment: MTT inhibition of proliferation; type: cell-based; conditions: Homo sapiens, 72 h
Description: as §1

MIA-PaCa-2 [5] = experiment: MTT inhibition of proliferation; type: cell-based; conditions: Homo sapiens; MIA-PaCa-2, MTT, 72 h
Description: as §1

AsPC-1 = experiment: MTT inhibition of proliferation; type: cell-based, human; conditions: Homo sapiens, ASPC1, 72 h, AsPC-1, MTT, 72 h
Description: as §1

SKOV-3 = experiment: MTT inhibition of proliferation; type: cell-based, human; conditions: Homo sapiens, SK-OV-3, 72 h, SKOV-3, MTT
Description: as §1

MCF7 [6] = experiment: Flow cytometry of CSt-C markers after culture with drugs; type: cell-based, human
Protocol: (§2) Flow cytometery analysis. All cells were cultured with Gem at 2×IC50 of gemcitabine for 10 days. Cultured cells (2×10^5) were washed in cold-PBS followed by blocking with 20 μL of 1 mg/mL of human IgG (Sigma, Saint Louis, Mo.) for 1 hour on ice. This step was necessary to inhibit non-specific binding of immunoglobulins during staining. Cells were then triple-stained with antibodies against ESA, CD44, and CD24. Analysis was performed with Becton Dickinson FACSCalibur and Cell Quest software (Becton Dickinson). Cells were gated on ESA+ population. Expression of CD24 and CD44 was examined in gated ESA+ cells as we described (26). The population of the ESA+, CD44hi and CD24low/− cells was calculated as percent of total cells and total ESA+ cells. All cell lines were also stained with a MIC-A/B and CD133, and analyzed as above.

MIA-PaCa-2 [7] = experiment: as above; type: cell-based, human
Protocol: as §2

MIA-PaCa-2 [8] = experiment: Flow cytometry of NKG2D ligands MIC-A/B in drug-resistant cells; type: cell-based, human; conditions: MIA PaCa-2, FIG. 7A
Protocol: as §2
To address the hypothesis that drug-resistant cancer cells are more sensitive to cellular immune effectors, we quantified expression of NKG2D ligands, MIC-A and -B (58, 59). ESA^+ MIA-PaCa-2 cells were analyzed for MIC-A/B. MCF7 cells were analyzed with CD44, CD24 and MIC-A/B (FIG. 7B), because almost all MCF7 cells (95% and more) expressed ESA.

[9] = Patient 1, TCR-density High, TAL one week in 300 IU IL-2
[10] = MIA-PaCa-2 after culture with drug

Sequence of recombinant human Delta-like protein 4 (Q9NR61 27-524 limits assumed, stated change not applied): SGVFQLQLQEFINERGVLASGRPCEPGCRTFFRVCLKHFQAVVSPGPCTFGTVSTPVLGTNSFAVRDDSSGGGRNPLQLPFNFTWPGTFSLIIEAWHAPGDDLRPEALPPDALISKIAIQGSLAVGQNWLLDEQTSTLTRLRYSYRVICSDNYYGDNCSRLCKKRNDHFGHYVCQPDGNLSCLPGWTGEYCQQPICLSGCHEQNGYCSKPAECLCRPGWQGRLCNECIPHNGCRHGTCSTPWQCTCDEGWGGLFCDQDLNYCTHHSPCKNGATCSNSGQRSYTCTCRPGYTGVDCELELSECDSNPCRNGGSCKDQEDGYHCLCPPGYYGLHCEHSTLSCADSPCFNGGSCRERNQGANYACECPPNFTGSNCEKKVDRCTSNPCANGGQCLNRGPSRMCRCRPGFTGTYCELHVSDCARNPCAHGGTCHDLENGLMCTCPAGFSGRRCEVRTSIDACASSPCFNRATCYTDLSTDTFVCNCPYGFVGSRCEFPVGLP

| Compound | % TCR+ cells for HLA-A2: peptide [1, 9] | % TCR+ cells for HLA-A2: peptide ([1]; Patient 1, TCR-density Low) [%] | % TCR+ cells for HLA-A2: peptide ([1]; Patient 1, TCR-density Med) | % TCR+ cells for HLA-A2: peptide ([1]; Patient 2, TCR-density High) [%] | % TCR+ cells for HLA-A2: peptide ([1]; Patient 2, TCR-density Low) | % TCR+ cells for HLA-A2: peptide ([1]; Patient 2, TCR-density Med) [%] | % TCR+ cells for HLA-A2: peptide ([1]; Patient 3, TCR-density High) [%] | % TCR+ cells for HLA-A2: peptide ([1]; Patient 3, TCR-density Low) [%] | % TCR+ cells for HLA-A2: peptide ([1]; Patient 3, TCR-density Med) [%] | % TCR+ cells for HLA-A2: peptide ([1]; Patient 4, TCR-density High) [%] | % TCR+ cells for HLA-A2: peptide ([1]; Patient 4, TCR-density Low) [%] | % TCR+ cells for HLA-A2: peptide ([1]; Patient 4, TCR-density Med) | % TCR+ cells for HLA-A2: peptide ([1]; Patient 5, TCR-density High) | % TCR+ cells for HLA-A2: peptide ([1]; Patient 5, TCR-density Low) [%] | % TCR+ cells for HLA-A2: peptide ([1]; Patient 5, TCR-density Med) [%] | also measured |
| --- | --- | --- | --- | --- | --- | --- | --- | --- | --- | --- | --- | --- | --- | --- | --- | --- |
| VLWVSADGL (listed as Homo sapiens) [Numb1-87] | 0.64* % | 0.51 | 0.66* % | 0.16 | 2.76* % | 0.46 | 0.09 | 0.50 | 0.21 | 0.22 | 0.53 | 0.26% | 0.27* % | 1.84 | 0.27 | TCRhi CD8+ cells relative to cells reactive with control dNP dimers ([1]; Patient 5): 2.45 times; increase in numbers of TCRhi Perhi cells compared with Notch1-2112 dimer ([1]; TAL-1, FIG. 4): 3.3 fold; amount of Perforin in peptide-TCR+ cells ([1]; TAL-1, FIG. 4G): highest amount of Perforin; increase in numbers of TCR+ cells ([1]; TAL-2, large-size lymphocytes, FIG. 5H): 3 fold; patients with activated CD8+ Perforin+ cells expressing TCR specific for the peptide [1]: three of five |
| LPL TPLPVGL [AES1] | 0.19% | 0.23 | 0.23% | – | – | – | – | – | – | – | – | – | – | – | – | – |
| DLL4: recombinant human Delta-like protein 4, soluble Notch ligand | – | – | – | – | – | – | – | – | – | – | – | – | – | – | – | expansion of CD44+ CD24low cells compared with medium (MCF7 cells; DLL4-activation of GEMRes cells): 2-3 fold; CD44hi CD24hi (% of cells) (MCF7 cells; MCF7): 36.4%; CD44hi CD24hi (cell number) (MCF7 cells; MCF7): 6.84; CD44hi CD24low (% of cells) (MCF7 cells; MCF7): (3.5%); CD44hi CD24low (cell number) (MCF7 cells; MCF7): 0.66 × 10^6; ratio CD44hi CD24hi to CD44hi CD24low (MCF7 cells; MCF7): 10.4; Stimulation Index (MCF7 cells; MCF7, harvested/seeded): 6.27; Harvested cells (MCF7 cells; MCF7, seeded 3.0 x 10^6): *18.80 10^6 |
| RLLEASADA (listed as Homo sapiens) [Notch1-1947, used as specificity control] | – | – | – | 0.10 | 0.99% | 0.32 | 0.10 | 0.65 | 0.24 | 0.22 | 0.53 | 0.26% | 0.14% | 1.98 | 0.26 | – |
| recombinant human Delta-like protein 4 (from UniProt Q9NR61 27-524) (ligand) | – | – | – | – | – | – | – | – | – | – | – | – | – | – | – | Harvested cells: 10^6 (MCF7, DLL4, no GEM; NT control 12.96) [2]: 1.88e+07 cells; Harvested cells: 10^6 (MCF7, DLL4 with GEM; GEM alone 1.32) [2]: 2.16e+06 cells; Stimulation Index (proliferation of MCF7 cells, DLL4, no GEM; NT control 4.32) [2]: 6.27; Stimulation Index (proliferation of MCF7 cells, DLL4 with GEM; GEM alone 0.44) [2]: 0.72; increase in total cell number at stimulation with DLL4 [2]: > 45% |
| O=c1[nH]cc(F)c(=O)[nH]1 [5-FU, 5-fluorouracil] | – | – | – | – | – | – | – | – | – | – | – | – | – | – | – | cells harvested (MIA-PaCa-2 [3]): 3.4 ×10^6 cells; IC50 (PANC-1): 0.8 µM; IC50 (MCF7 [4]): 1.3 µM; IC50 (MIA-PaCa-2 [5]): 3.7 µM; IC50 (AsPC-1): 15.2 µM; IC50 (SKOV-3): 3.6 µM; change of CSt-like-C population (MCF7 [6]; MCF7): increased; cells harvested (MCF7 [6]; after culture of 3×10^6 MCF-7 cells): 1.6 ×10^6; change of CSt-C (CSt-like-C) population (MIA-PaCa-2 [7]; MIA-PaCa-2): increased; % CD44hi CD24- in ESA+ cells (MIA-PaCa-2 [7]; [10]): 0.2%; % CD44hi CD24hi in ESA+ cells (MIA-PaCa-2 [7]; [10]): 7.1%; % CD44hi CD24low in ESA+ cells (MIA-PaCa-2 [7]; [10]): 19.8%; % CSt-like-C (MIA-PaCa-2 [7]; [10]): 16.4%; % ESA+ (MIA-PaCa-2 [7]; [10]): 83.0%; number of cells expressing MICA and MICB in drug-resistant cells (MIA-PaCa-2 [8]): increased |
| RLLDEYNLV (listed as Homo sapiens) [Notch1-2112] | 0.26% | 0.24 | 0.28% | 0.17 | 2.09* % | 0.35 | 0.08 | 0.43 | 0.28 | 0.08 | 0.88 | 0.34* % | 0.17% | 2.52 | 0.36 | TCRmed cells relative to base-line NP dimers ([1]; Patient 4): 2.61 times; TCRmed cells relative to base-line control dNP ([1]; Patient 5): 1.63 times; patients with activated CD8+ Perforin+ cells expressing TCR specific for the peptide [1]: two of five |
